Laboratory results: patent US11214594B2, “Antimicrobial peptide having synergistic antibacterial effect with antibiotics on multidrug resistant bacteria, and use thereof” (priority 2016, dated 2022)
Converted amounts (≈) assume the structure as drawn. Where a SMILES comes first, the peptide text is derived from it.

Legend:
MDREC 1229 [1] = test: MIC of antibiotic during combined treatment with antimicrobial peptide; assay type: cell-based, Escherichia coli
Procedure: Specifically, the strains described in [Table 2] were prepared and diluted with an MH medium such that the number of bacteria was 2×10^6 colony-forming units (CFUs) per 1 ml, 100 μl of the diluted strains was each aliquoted into a 96-well microtiter plate, and then 50 μl of a peptide solution diluted with the MH medium from the MIC value (solution diluted stepwise at 2: 1) was added to each well. Thereafter, the MIC value of each mixed solution was determined by diluting the antibiotic solution with the MH medium, adding 50 μl of the diluted solution to each well, and performing an experiment even under a reversed condition.

S. aureus = test: microbe, parasite or virus in culture; assay type: cell-based, Staphylococcus aureus
Summary of the method: (§1)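 MIC read-out = lowest peptide level with no bacterial proliferation. Strains diluted in MH medium to 2×10^6 CFU; peptide twofold serial dilutions in MH added 1:1 in microtiter wells.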

E. coli = test: microbe, parasite or virus in culture; assay type: cell-based, Escherichia coli; details: 16 h
Summary of the method: as §1

MDREC 1229 [2] = test: microbe, parasite or virus in culture; assay type: cell-based, Escherichia coli
Summary of the method: as §1

B. subtilis = test: microbe, parasite or virus in culture; assay type: cell-based, Bacillus subtilis
Summary of the method: as §1

A. baumannii = test: MIC of antimicrobial peptide during combined treatment with antibiotic; assay type: cell-based, Acinetobacter baumannii
Summary of the method: (§2)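 Strains in MH medium at 2×10^6 CFU/ml were mixed with peptide diluted stepwise (2:1) from its MIC, then antibiotic dilutions in MH medium were added to give the antibiotic MIC. The reversed set-up, peptide titrated against fixed antibiotic, gave the peptide MIC.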

MDRAB 12035 = test: as above; assay type: cell-based, Acinetobacter baumannii
Summary of the method: as §2

[3] = peptide treatment concentration 1 μg/ml
[4] = peptide treatment concentration 2 μg/ml
[5] = peptide treatment concentration 4 μg/ml
[6] = peptide treatment concentration 6 μg/ml
[7] = peptide treatment concentration 8 μg/ml
[8] = peptide treatment concentration 16 μg/ml
[9] = peptide treatment concentration 32 μg/ml
[10] = peptide treatment concentration 64 μg/ml
[11] = erythromycin 4 μg/ml (Conc./MIC 1/8)
[12] = erythromycin 8 μg/ml (Conc./MIC 1/4)
[13] = erythromycin 16 μg/ml (Conc./MIC 1/2)
[14] = erythromycin 32 μg/ml (Conc./MIC 1)
[15] = linezolid 32 μg/ml (Conc./MIC 1/8)
[16] = linezolid 64 μg/ml (Conc./MIC 1/4)
[17] = vancomycin 512 μg/ml (Conc./MIC 1/2)
[18] = vancomycin 1024 μg/ml (Conc./MIC 1)

CC[C@H](C)[C@H](NC(=O)[C@H](CCCCN)NC(=O)[C@H](Cc1c[nH]c2ccccc12)NC(=O)[C@@H](N)CCCNC(=N)N)C(=O)N[C@@H](Cc1ccccc1)C(=O)N[C@@H](CCCCN)C(=O)N[C@@H](CCCCN)C(=O)N[C@H](C(=O)N1CCC[C@H]1C(=O)N[C@@H](CCCCN)C(=O)N[C@@H](Cc1ccccc1)C(=O)N[C@@H](CC(C)C)C(=O)N[C@@H](Cc1c[nH]cn1)C(=O)N[C@@H](CO)C(=O)N[C@@H](C)C(=O)N[C@@H](CCCCN)C(=O)N[C@@H](CCCCN)C(=O)N[C@@H](Cc1ccccc1)C(N)=O)[C@@H](C)CC [PapMA-1, RWK IFK KIP KFL HSA KKF-NH2] (H-RWKIFKKIPKFLHSAKKF-NH2; N-terminus assumed)
Antibiotic MIC, Erythromycin (MDREC 1229 [1]; [3]): 128 mg/L | Antibiotic MIC, Linezolid (MDREC 1229 [1]; [3]): >128 mg/L | Antibiotic MIC, Vancomycin (MDREC 1229 [1]; [3]): >128 mg/L | Antibiotic MIC, Erythromycin (MDREC 1229 [1]; [4]): 32 mg/L | Antibiotic MIC, Linezolid (MDREC 1229 [1]; [4]): 128 mg/L | Antibiotic MIC, Vancomycin (MDREC 1229 [1]; [4]): >128 mg/L | Antibiotic MIC, Erythromycin (MDREC 1229 [1]; [5]): 16 mg/L | Antibiotic MIC, Linezolid (MDREC 1229 [1]; [5]): 64 mg/L | Antibiotic MIC, Vancomycin (MDREC 1229 [1]; [5]): >128 mg/L | Antibiotic MIC, Erythromycin (MDREC 1229 [1]; [6]): 8 mg/L | Antibiotic MIC, Linezolid (MDREC 1229 [1]; [6]): 64 mg/L | Antibiotic MIC, Vancomycin (MDREC 1229 [1]; [6]): >128 mg/L | Antibiotic MIC, Erythromycin (MDREC 1229 [1]; [7]): 4 mg/L | Antibiotic MIC, Linezolid (MDREC 1229 [1]; [7]): 32 mg/L | Antibiotic MIC, Vancomycin (MDREC 1229 [1]; [7]): 128 mg/L | Antibiotic MIC, Erythromycin (MDREC 1229 [1]; [8]): 1 mg/L | Antibiotic MIC, Linezolid (MDREC 1229 [1]; [8]): 16 mg/L | Antibiotic MIC, Vancomycin (MDREC 1229 [1]; [8]): 16 mg/L | Antibiotic MIC, Erythromycin (MDREC 1229 [1]; [9]): 0.25 mg/L | Antibiotic MIC, Linezolid (MDREC 1229 [1]; [9]): 8 mg/L | Antibiotic MIC, Vancomycin (MDREC 1229 [1]; [9]): 8 mg/L | Antibiotic MIC, Erythromycin (MDREC 1229 [1]; [10]): 0 mg/L | Antibiotic MIC, Linezolid (MDREC 1229 [1]; [10]): 0 mg/L | Antibiotic MIC, Vancomycin (MDREC 1229 [1]; [10]): 0 mg/L | Minimal inhibitory concentration MIC (S. aureus): >128 mg/L | Minimal inhibitory concentration MIC (E. coli): 64 mg/L (≈ 27.8 µM) | Minimal inhibitory concentration MIC (MDREC 1229 [2]): 64 mg/L (≈ 27.8 µM) | Peptide MIC, peptide alone (MDREC 1229 [2]): 64 mg/L | Minimal inhibitory concentration MIC (B. subtilis): >128 mg/L | Peptide MIC during treatment with antibiotic (A. baumannii; [11]): 4 mg/L | Peptide MIC during treatment with erythromycin (A. baumannii; [11]): 4 mg/L | Peptide MIC during treatment with antibiotic (A. baumannii; [12]): 4 mg/L | Peptide MIC during treatment with erythromycin (A. baumannii; [12]): 4 mg/L | Peptide MIC during treatment with antibiotic (A. baumannii; [13]): 2 mg/L | Peptide MIC during treatment with erythromycin (A. baumannii; [13]): 2 mg/L | Peptide MIC during treatment with antibiotic (A. baumannii; [14]): 0 mg/L | Peptide MIC during treatment with erythromycin (A. baumannii; [14]): 0 mg/L | Peptide MIC during treatment with antibiotic (A. baumannii; [15]): 4 mg/L | Peptide MIC during treatment with linezolid (A. baumannii; [15]): 4 mg/L | Peptide MIC during treatment with antibiotic (A. baumannii; [16]): 4 mg/L | Peptide MIC during treatment with linezolid (A. baumannii; [16]): 4 mg/L | Peptide MIC during treatment with antibiotic (A. baumannii; linezolid […] (Conc./MIC 1)): 0 mg/L | Peptide MIC during treatment with linezolid (A. baumannii; linezolid […] (Conc./MIC 1)): 0 mg/L | Peptide MIC during treatment with antibiotic (A. baumannii; linezolid […] (Conc./MIC 1/2)): 0.5 mg/L | Peptide MIC during treatment with linezolid (A. baumannii; linezolid […] (Conc./MIC 1/2)): 0.5 mg/L | Peptide MIC during treatment with antibiotic (A. baumannii; [17]): 0.25 mg/L | Peptide MIC during treatment with vancomycin (A. baumannii; [17]): 0.25 mg/L | Peptide MIC during treatment with antibiotic (A. baumannii; [18]): 0 mg/L | Peptide MIC during treatment with vancomycin (A. baumannii; [18]): 0 mg/L | Peptide MIC during treatment with antibiotic (A. baumannii; vancomycin […] (Conc./MIC 1/4)): 0.5 mg/L | Peptide MIC during treatment with vancomycin (A. baumannii; vancomycin […] (Conc./MIC 1/4)): 0.5 mg/L | Peptide MIC during treatment with antibiotic (A. baumannii; vancomycin […] (Conc./MIC 1/8)): 4 mg/L | Peptide MIC during treatment with vancomycin (A. baumannii; vancomycin […] (Conc./MIC 1/8)): 4 mg/L | Peptide MIC during treatment with erythromycin (MDRAB 12035; [11]): 4 mg/L | MIC of peptide in combination as fraction of the MIC of the peptide alone (MDRAB 12035; erythromycin 8 μg/ml): 1/16 | MIC value of peptide during combined treatment with erythromycin (MDRAB 12035; erythromycin 8 μg/ml (1/4 of its MIC)): 4 mg/L | Peptide MIC during treatment with erythromycin (MDRAB 12035; [12]): 4 mg/L | Peptide MIC during treatment with erythromycin (MDRAB 12035; [13]): 4 mg/L | Peptide MIC during treatment with erythromycin (MDRAB 12035; [14]): 0 mg/L | Peptide MIC during treatment with linezolid (MDRAB 12035; linezolid 64 μg/ml (Conc./MIC 1/8)): 4 mg/L | Peptide MIC during treatment with linezolid (MDRAB 12035; linezolid 512 μg/ml (Conc./MIC 1)): 0 mg/L | Peptide MIC during treatment with linezolid (MDRAB 12035; linezolid […] (Conc./MIC 1/2)): 1 mg/L | Peptide MIC during treatment with linezolid (MDRAB 12035; linezolid […] (Conc./MIC 1/4)): 4 mg/L | Peptide MIC during treatment with vancomycin (MDRAB 12035; [17]): 2 mg/L | Peptide MIC during treatment with vancomycin (MDRAB 12035; [18]): 1 mg/L | Peptide MIC during treatment with vancomycin (MDRAB 12035; vancomycin […] (Conc./MIC 1/4)): 4 mg/L | Peptide MIC during treatment with vancomycin (MDRAB 12035; vancomycin […] (Conc./MIC 1/8)): 4 mg/L
